The source of these data is the supplement of paper PMC8976852.

Holding throughout (test): activity (1 - area under the dose-response curve within the screened range) (fraction); higher = more sensitive
What all share (details): treatment time: 72 h

For one assay, the system named is HCM-SANG-0266-C20 (colorectal cancer organoid). Here is the method: (§1)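 Patient-derived cancer organoids (colorectal and oesophageal, HCM-SANG models) were grown for up to 6 months in 5% or 80% ECM (BME-2), then seeded in 384-well plates on an ECM layer and treated with 72 compounds for 3 days. Each compound used a 7-point half-log dilution series spanning a 1000-fold range, in technical triplicate and biological duplicate. Dose-response curves were fitted with a non-linear mixed effects model; fits with RMSE > 0.3 were removed, and activity = 1 - AUC within the screened dose range (0 = no activity, 1 = maximum).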

The next assay has as its system HCM-SANG-0270-C20 (colorectal cancer organoid). The method, then:
as §1

Another assay has as its system HCM-SANG-0291-C15 (oesophageal cancer organoid). Here is the method: as §1
The test system of a further assay is HCM-SANG-0532-C20 (colorectal cancer organoid). The method, then:
as §1

Where [1] appears, read: ECM percentage in culture prior to screening 5 %.
The mark [2] stands for this setting: ECM percentage in culture prior to screening 80 %.

The structures appear in SMILES notation. ± gives the standard deviation of the averaged measurements.

Regarding `CCNC(=O)C[C@@H]1N=C(c2ccc(Cl)cc2)c2cc(OC)ccc2-n2c(C)nnc21` [I-BET-762], the activity with HCM-SANG-0266-C20 (setting [1]) worked out at 0.121 ± 0.041; in the assay with HCM-SANG-0266-C20 (setting [2]) it was 0.0782 ± 0.04; in the assay with HCM-SANG-0270-C20 (setting [1]), 0.0441 ± 0.019; with HCM-SANG-0270-C20 (setting [2]) it was 0.0339 ± 0.019; in the assay on HCM-SANG-0291-C15 (setting [1]), 0.0724 ± 0.037; with HCM-SANG-0291-C15 (setting [2]), 0.068 ± 0.015. Also, the activity with HCM-SANG-0532-C20 (setting [1]) was 0.0448 ± 0.021; in the assay on HCM-SANG-0532-C20 (setting [2]), 0.0841 ± 0.035.

`NC1(c2ccc(-c3nc4ccn5c(=O)[nH]nc5c4cc3-c3ccccc3)cc2)CCC1` [MK-2206]: the activity was 0.223 ± 0.074 with HCM-SANG-0266-C20 (setting [1]); 0.152 ± 0.095 with HCM-SANG-0266-C20 (setting [2]); 0.076 ± 0.014 in the assay on HCM-SANG-0270-C20 (setting [1]); 0.0487 ± 0.04 with HCM-SANG-0270-C20 (setting [2]); 0.086 ± 0.048 in the assay on HCM-SANG-0291-C15 (setting [1]); 0.0594 ± 0.025 with HCM-SANG-0291-C15 (setting [2]). The figures for the activity in the assay with HCM-SANG-0532-C20 (setting [1]) and in the assay with HCM-SANG-0532-C20 (setting [2]) were 0.158 ± 0.11 and 0.168 ± 0.034, respectively.

For `CC(=O)Nc1cccc(-n2c(=O)n(C3CC3)c(=O)c3c(Nc4ccc(I)cc4F)n(C)c(=O)c(C)c32)c1` [Trametinib], the activity in the assay with HCM-SANG-0266-C20 (setting [1]) was 0.207 ± 0.078; in the assay on HCM-SANG-0266-C20 (setting [2]), 0.0946 ± 0.067; with HCM-SANG-0270-C20 (setting [1]), 0.0906 ± 0.051; in the assay on HCM-SANG-0270-C20 (setting [2]), 0.0586 ± 0.043; in the assay on HCM-SANG-0291-C15 (setting [1]) it was 0.1 ± 0.019; in the assay on HCM-SANG-0291-C15 (setting [2]), 0.0654 ± 0.02. The activity in the assay with HCM-SANG-0532-C20 (setting [1]) is 0.114 ± 0.065; in the assay on HCM-SANG-0532-C20 (setting [2]) it was 0.146 ± 0.024.

Consider `O=C(c1cc(Cc2n[nH]c(=O)c3ccccc23)ccc1F)N1CCN(C(=O)C2CC2)CC1` [Olaparib], for which the activity came to 0.0602 ± 0.028 with HCM-SANG-0266-C20 (setting [1]); 0.0424 ± 0.017 in the assay on HCM-SANG-0266-C20 (setting [2]); 0.0818 ± 0.017 with HCM-SANG-0270-C20 (setting [1]); 0.0664 ± 0.027 with HCM-SANG-0270-C20 (setting [2]); 0.0587 ± 0.015 in the assay on HCM-SANG-0291-C15 (setting [1]); 0.0412 ± 0.017 with HCM-SANG-0291-C15 (setting [2]). Also, the activity came out at 0.0528 ± 0.018 in the assay with HCM-SANG-0532-C20 (setting [1]) and 0.0726 ± 0.027 with HCM-SANG-0532-C20 (setting [2]).

As to `CC1(C)CCC(c2ccc(Cl)cc2)=C(CN2CCN(c3ccc(C(=O)NS(=O)(=O)c4ccc(N[C@H](CCN5CCOCC5)CSc5ccccc5)c(S(=O)(=O)C(F)(F)F)c4)cc3)CC2)C1` [Navitoclax], the activity in the assay on HCM-SANG-0266-C20 (setting [1]) came out at 0.327 ± 0.03; in the assay with HCM-SANG-0266-C20 (setting [2]) it was 0.358 ± 0.051; with HCM-SANG-0270-C20 (setting [1]) it was 0.201 ± 0.033; in the assay on HCM-SANG-0270-C20 (setting [2]), 0.188 ± 0.047; with HCM-SANG-0291-C15 (setting [1]) it was 0.125 ± 0.032; with HCM-SANG-0291-C15 (setting [2]) it was 0.121 ± 0.029. In addition, the activity with HCM-SANG-0532-C20 (setting [1]) came out at 0.314 ± 0.045; with HCM-SANG-0532-C20 (setting [2]) it was 0.288 ± 0.075.

As to `C[C@@]1(C(=O)Nc2ccc(F)nc2)CCCN1c1nc(Nc2cc(C3CC3)n[nH]2)c2cccn2n1`, the activity in the assay on HCM-SANG-0266-C20 (setting [1]) was found to be 0.455 ± 0.056; in the assay on HCM-SANG-0266-C20 (setting [2]) it was 0.41 ± 0.056; in the assay with HCM-SANG-0270-C20 (setting [1]), 0.18 ± 0.086; with HCM-SANG-0270-C20 (setting [2]), 0.22 ± 0.11; in the assay on HCM-SANG-0291-C15 (setting [1]) it was 0.126 ± 0.039; in the assay with HCM-SANG-0291-C15 (setting [2]) it was 0.172 ± 0.056. For the same compound, the activity turned out to be 0.279 ± 0.091 with HCM-SANG-0532-C20 (setting [1]) and 0.302 ± 0.035 in the assay with HCM-SANG-0532-C20 (setting [2]).

For `O=C1NC(=NCc2cccs2)S/C1=C\c1ccc2ncccc2c1` [RO-3306], the activity in the assay on HCM-SANG-0266-C20 (setting [1]) amounted to 0.123 ± 0.017; in the assay with HCM-SANG-0266-C20 (setting [2]), 0.152 ± 0.035; with HCM-SANG-0270-C20 (setting [1]), 0.0909 ± 0.041; in the assay with HCM-SANG-0270-C20 (setting [2]), 0.0974 ± 0.033; in the assay on HCM-SANG-0291-C15 (setting [1]), 0.0636 ± 0.017; in the assay with HCM-SANG-0291-C15 (setting [2]) it was 0.0709 ± 0.026. In addition, the activity in the assay with HCM-SANG-0532-C20 (setting [1]) was 0.117 ± 0.033; in the assay with HCM-SANG-0532-C20 (setting [2]), 0.108 ± 0.016.

For the compound `CN1CCN(CCOc2cc(OC3CCOCC3)c3c(Nc4c(Cl)ccc5c4OCO5)ncnc3c2)CC1` [Saracatinib], the activity with HCM-SANG-0266-C20 (setting [1]) was found to be 0.156 ± 0.038; in the assay on HCM-SANG-0266-C20 (setting [2]) it was 0.126 ± 0.041; in the assay with HCM-SANG-0270-C20 (setting [1]) it was 0.121 ± 0.071; with HCM-SANG-0270-C20 (setting [2]), 0.0918 ± 0.067; in the assay on HCM-SANG-0291-C15 (setting [1]) it was 0.159 ± 0.035; with HCM-SANG-0291-C15 (setting [2]), 0.185 ± 0.024. The results for the activity in the assay with HCM-SANG-0532-C20 (setting [1]) and in the assay with HCM-SANG-0532-C20 (setting [2]) were 0.155 ± 0.067 and 0.141 ± 0.028, respectively.

Turning to `CCc1c2c(nc3ccc(OC(=O)N4CCC(N5CCCCC5)CC4)cc13)-c1cc3c(c(=O)n1C2)COC(=O)[C@]3(O)CC` [Irinotecan], the activity in the assay on HCM-SANG-0266-C20 (setting [1]) stood at 0.0899 ± 0.035; in the assay on HCM-SANG-0266-C20 (setting [2]), 0.0683 ± 0.022; in the assay with HCM-SANG-0270-C20 (setting [1]) it was 0.0887 ± 0.063; in the assay with HCM-SANG-0270-C20 (setting [2]), 0.079 ± 0.039; with HCM-SANG-0291-C15 (setting [1]) it was 0.233 ± 0.019; with HCM-SANG-0291-C15 (setting [2]) it was 0.18 ± 0.015. Further, the figures for the activity in the assay on HCM-SANG-0532-C20 (setting [1]) and in the assay with HCM-SANG-0532-C20 (setting [2]) were 0.1 ± 0.035 and 0.0793 ± 0.037, respectively.

For the compound `C[C@]1(O)C[C@@H](c2nc(-c3ccc4ccc(-c5ccccc5)nc4c3)c3c(N)nccn32)C1` [Linsitinib], the activity in the assay with HCM-SANG-0266-C20 (setting [1]) worked out at 0.0577 ± 0.033; in the assay with HCM-SANG-0266-C20 (setting [2]), 0.0295 ± 0.017; in the assay with HCM-SANG-0270-C20 (setting [1]), 0.0341 ± 0.014; in the assay on HCM-SANG-0270-C20 (setting [2]) it was 0.0245 ± 0.0092; in the assay on HCM-SANG-0291-C15 (setting [1]) it was 0.0216 ± 0.0028; with HCM-SANG-0291-C15 (setting [2]) it was 0.0248 ± 0.013. Moreover, the values for the activity in the assay on HCM-SANG-0532-C20 (setting [1]) and with HCM-SANG-0532-C20 (setting [2]) were 0.033 ± 0.015 and 0.0378 ± 0.015, respectively.

Regarding `CNC(=O)c1ccccc1Sc1ccc2c(/C=C/c3ccccn3)n[nH]c2c1` [Axitinib], the activity with HCM-SANG-0266-C20 (setting [1]) stood at 0.147 ± 0.033; with HCM-SANG-0266-C20 (setting [2]), 0.143 ± 0.047; in the assay with HCM-SANG-0270-C20 (setting [1]), 0.125 ± 0.03; with HCM-SANG-0270-C20 (setting [2]), 0.109 ± 0.037; in the assay on HCM-SANG-0291-C15 (setting [1]) it was 0.0739 ± 0.021; in the assay with HCM-SANG-0291-C15 (setting [2]), 0.056 ± 0.023. The values for the activity in the assay on HCM-SANG-0532-C20 (setting [1]) and in the assay on HCM-SANG-0532-C20 (setting [2]) were 0.112 ± 0.021 and 0.135 ± 0.035, respectively.
